Consider 2 molecules from patent US11226337B2, “Chemoproteomic profiling of protein electrophilic and oxidative post-translational modifications” (Zenagem, LLC, priority 2017, dated 2022).

What all share (format): cell-based
One test deals with T1, AMD1 (Homo sapiens, UniProt P17707).
T1 construct: made in house; host or cells: E. coli (intact cells treated with probe)
In words: probe labelling of E. coli cells expressing the protein. The note with it: probe 1 3 mM or probe 2 1 mM, 37° C., 0.5 hour. The procedure:
Induced overnight cultures expressing each protein were resuspended in serum-free DMEM supplemented with 10 mM Na-HEPES buffer (pH 7.5) such that the final OD600 was ˜10. The probes were added to the cells (3 and 1 mM, respectively, for 1 and 2) and incubated at 37° C. for 0.5 hour. Note that these are the same conditions used for treatment of mammalian cells. The cells were pelleted (16,000 g, 3 min, 4° C.), washed with PBS (2×1 mL), and resuspended in HEPES buffer or PBS maintaining the same initial volume. Cells were lysed by sonication, debris was pelleted, soluble protein was diluted to 0.5 mg/mL with PBS and probe-labelled proteins were conjugated to rhodamine-azide and visualized as described above in Example 2.

Test [1] addresses T2, DENR Densityregulated protein (O43583) (Homo sapiens, UniProt O43583).
T2 construct: In Situ Labelling of Cells with Hydrazine Probes for MS Experiments; endogenous in cells; host or cells: HEK293T and/or MDA-MB-231
T2 sequence (O43583 1-198): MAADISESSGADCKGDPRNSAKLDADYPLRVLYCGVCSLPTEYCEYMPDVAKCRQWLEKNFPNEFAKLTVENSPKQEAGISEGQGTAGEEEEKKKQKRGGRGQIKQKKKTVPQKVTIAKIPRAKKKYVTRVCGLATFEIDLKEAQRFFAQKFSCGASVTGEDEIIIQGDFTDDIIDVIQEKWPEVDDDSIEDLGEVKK
The experiment in a line: SILAC RP-ABPP. As to conditions: SILAC H/L. The procedure:
(§1) For MS-based experiments, labelling was performed in a similar manner as described above in Example 2, maintaining the same concentrations of probes. Modifications to this protocol included using isotopically ‘light’ and ‘heavy’ SILAC cells that were also grown to near complete confluence prior to treatment. Isotopically light cells were treated with the non-clickable hydrazine probe (at the same concentration as the probe in ‘enrichment’ experiments) or the probe in the presence of 10-fold excess non-clickable hydrazine probe as a competitor (in ‘competition’ experiments). Isotopically heavy cells were treated with the probe for both types of experiments. These treatments were performed in non-SILAC media. Following treatments, cells were washed with cold PBS to remove the probe-containing media, harvested by scraping, collected by centrifugation (1,400 g, 3 min, 4° C.), washed again by resuspension in cold PBS and frozen as pellets at −80° C. until use.
(§2) The fractionated equimolar mixture of heavy and light soluble proteomes (1-1.5 mg) was diluted to 1 mL in PBS. Click reactions were scaled accordingly (except for biotin-azide) to maintain final concentrations of 0.1 mM TBTA, 1 mM CuSO4, 100 μM biotin-azide (10 mM in DMSO) and 1 mM TCEP. The mixture was vortexed and placed on a rotator at ambient temperature for 1 hour. Sequential addition of and mixture with pre-chilled methanol (MeOH, 2 mL), chloroform (CHCl3, 0.5 mL) and PBS (1 mL) on ice quenched the reaction. The precipitated proteome was centrifuged (5,000 g, 10 min, 4° C.) to fractionate the protein interphase from the organic and aqueous solvent layers. The protein pellet was washed with cold 1:1 MeOH:CHCl3 (3×1 mL), mildly sonicated in cold 4:1 MeOH:CHCl3 (2.5 mL) and pelleted once more by centrifugation (5,000 g, 10 min, 4° C.) to ensure click reagents were efficiently removed.
(§3) Heavy and light parent ion chromatograms associated with successfully identified peptides were extracted and compared using CIMAGE software as previously described^69. At least one ion of a co-eluting heavy-light pair must be accurately identified from a fragmentation event that occurred within the retention time window (±10 min) of parent ion elution. To ensure that the correct pair of peaks is quantified, chromatograms are extracted within a 10 ppm error tolerance of the predicted m/z, the signal-to-noise ratio must be >2.5 and the ‘co-elution correlation score’ and ‘envelope correlation score’ must have R^2 values ≥0.8. In addition, peptides detected as ‘singletons,’ where only the heavy ion of a peptide pair was identified, but for which passed all other filtering parameters, are given a default assigned ratio of ‘20,’ which is defined as any measured ratio that is ≥20.
(§4) To further eliminate false positives and any stochastic variability in the data, protein ratios were then determined by the median peptide ratio derived from three or more unique quantified peptides. Protein ratios that complied with these criteria from a single experiment were then averaged with ratios acquired from ≥3 replicates to provide final values for each type of experiment in both cell lines with both probes. […] Most importantly, there are no robustly measured ratios for proteins identified as probe 1 targets that had measured ratios of ˜1 with probe 2. Probe targets in HEK293T and MDA-MB-231 cells represent data combined from ≥3 independent biological replicates with each cell type performed with several independent batches of synthesized probes over a period of almost two years.
(§5) Analogous experiments were also performed with the aryl hydrazine probe 2 (1 mM, 0.5 hour), which furnished a larger list of high-reactivity proteins (33 in total; Table 3) that contained several of the targets of probe 1 (compared in Table 4), as well as additional proteins that may reflect an expanded chemical reactivity for probe 2.

Test [2] deals with T3, CTSC Dipeptidyl peptidase 1 (P53634) (Homo sapiens, UniProt P53634).
T3 construct: In Situ Labelling of Cells with Hydrazine Probes for MS Experiments; endogenous in cells; host or cells: HEK293T and/or MDA-MB-231
In words: SILAC RP-ABPP. As to conditions: SILAC H/L. The procedure: as §1, §2, §3, §4, §5

Test [3] addresses T4, PPT1 Palmitoylprotein thioesterase 1 (P50897) (Homo sapiens, UniProt P50897).
T4 construct: In Situ Labelling of Cells with Hydrazine Probes for MS Experiments; endogenous in cells; host or cells: HEK293T and/or MDA-MB-231
T4 sequence (P50897 28-306): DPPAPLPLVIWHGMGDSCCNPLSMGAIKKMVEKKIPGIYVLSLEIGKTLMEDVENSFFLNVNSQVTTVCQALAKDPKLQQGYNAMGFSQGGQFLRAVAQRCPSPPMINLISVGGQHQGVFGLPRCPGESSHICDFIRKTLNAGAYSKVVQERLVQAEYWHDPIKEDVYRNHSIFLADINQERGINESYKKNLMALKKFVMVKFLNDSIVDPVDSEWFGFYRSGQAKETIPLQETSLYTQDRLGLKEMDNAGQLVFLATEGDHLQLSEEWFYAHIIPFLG
In words: SILAC RP-ABPP. The note with it: SILAC H/L. The procedure:
as §1, §2, §3, §4, §5

The target of test [4] is T5, FTH1 Ferritin heavy chain (P02794) (Homo sapiens, UniProt P02794).
T5 construct: In Situ Labelling of Cells with Hydrazine Probes for MS Experiments; endogenous in cells; host or cells: HEK293T and/or MDA-MB-231
The experiment in a line: SILAC RP-ABPP. As to conditions: SILAC H/L. The procedure:
as §1, §2, §3, §4, §5

Setting [5] is: probe 2 1 mM 0.5 h vs probe 4, MDA-MB-231.
Where [6] appears, read: probe 2 vs probe 2+10x probe 4, MDA-MB-231.
Setting [7] is: probe 1 vs probe 1+10x probe 3, cell line not given.

For the molecule `C#CCCNC(=O)c1ccc(NN)cc1.Cl` [probe 2, N-(but-3-yn-1-yl)-4-hydrazinylbenzamide hydrochloride], the “probe labelling of protein expressed in E. coli” value at AMD1 is given as “reacts well”. For the same molecule, the enrichment ratioavg in test [1] (setting [5]), in test [2] (setting [5]), in test [3] (setting [5]) and in test [4] (setting [5]) was 20 in each case. Moreover, the competition ratioavg is 5 in test [1] (setting [6]), 9 in test [2] (setting [6]), 5 in test [3] (setting [6]) and 5 in test [4] (setting [6]).

For `C#CCNN.Cl` [probe 1, prop-2-yn-1-ylhydrazine hydrochloride], the “probe labelling of protein expressed in E. coli” value on AMD1 is reported as “reacts well”. Besides, the competition ratioavg in test [1] (setting [7]) amounted to 1; in test [2] (setting [7]), 3; in test [3] (setting [7]), 5; in test [4] (setting [7]), 1. The molecule also yielded an enrichment ratioavg in test [4] (probe 1 3 mM 0.5 h vs probe 3, cell line not given) of 1.
